Test results published in patent publication US20260240746A1, “TOPICAL COMPOSITION AND IMPLEMENTATIONS THEREOF” (ULTRAMARINE & PIGMENTS LIMITED, priority 2022, published 2026).
“And” between values parts separate entries of the source, which are not always exact repeats. Equal entries are not always repeated.

Assays:
skin = assay: Moisturization analysis (Scalar moisture checker); type: in vivo, human; conditions: skin of the hand, 20° C., 60% RH
Protocol: The topical composition samples of the present disclosure and the commercial silicones (cyclopentasiloxane, dimethicone) were applied on a skin patch and the moisture content was analyzed for a duration of 8 hrs. The test was conducted on 3 volunteers. Three areas were marked on the skin of the hand. The composition was applied by rubbing in a circular direction for a period of two minute on the marked areas. The third area was kept blank. The readings were taken after five minutes of drying by Scaler Moisture Checker. The temperature of the room was kept at 20° C. and humidity was maintained at 60% RH. The moisture analysis was done using moisture checker from Scalar Impressive works. Scalar moisture checker works on the principle of capacitance to measure the permittivity of skin. […] The checker was pressed on the desired area perpendicularly to the skin and was held for a few seconds. […] Moisture level Content of 45.1 and above represent a very high moisture level, when moisture level is between 39.1-45.0 it is high normal, between 27.1-39.0 is mid normal, between 22.1-27.0 is low normal, between 12.1 to 22.0 is low and below 12.1 is very low moisture level. A graph of time after application and the moisture level content was plotted for each composition.

[1] = tested on: Murine fibroblast cell line (3T3); assay: Skin reactivity analysis by agar diffusion assay; type: cell-based; conditions: 3T3 cells, 24 hours exposure
Protocol: Skin reactivity analysis was carried out for the topical composition samples by agar diffusion assay. Murine fibroblast cell line (3T3) cells were seeded onto 60 mm tissue culture grade plastic Petri dishes and incubated for 24 hrs. After 24 hrs the media was replaced by a layer of 1% agar. Stock solution of 100 mg/ml of reference standard was prepared in sterile phosphate buffered saline (PBS) and tested at 10% (100 mg/ml). 5 μl of reference standard was loaded on to 6 mm sterile Whatman filter paper discs which were placed on the agar layer. Neat topical composition sample was used for testing. Approximately 5 μl of the topical composition sample was loaded on to 6 mm sterile Whatman filter paper discs which were placed on the agar layer. Sterile PBS was used as the negative control. Positive and negative controls were run concurrently. After an exposure of 24 hours to the samples, the assays were terminated by the addition of MTT (3-[4,5-dimethylthiazol-2-yl]-2,5-diphenyltetrazolium bromide; Thiazolyl blue) (Sigma M 5655) and incubated overnight in the dark. The following day, the cells were observed under the microscope and checked for the presence of crystals under the area of sample loading. The sample causing cell death was indicated by a clear zone of inhibition. The colour was allowed to develop overnight and the zone of inhibition was measured. The readings of the test samples were then scored based on comparisons with the positive and negative controls in compliance with the USP (U.S. Pharmacopoeia) grades for the agar diffusion test (Table 2).

SMILES: C[Si]1(C)O[Si](C)(C)O[Si](C)(C)O[Si](C)(C)O[Si](C)(C)O1 [Cyclopentasiloxane, cyclopentasiloxane]
- moisture content retained until 8 hours after application (skin; 8 hours after application): 21%
- moisture content after application (skin; after application): 23%

SMILES: CCCCCCCCCCCCOS(=O)(=O)[O-].[Na+] [Positive Control, sodium dodecyl sulphate]
- Reactivity [1]: Severe (Zone extends greater than 1.0 cm beyond specimen)
- Zone of Inhibition, mean per experiment ([1]; sample neat (100% concentration), Expt 1-3, sulphate): 1.08 cm and 1.14 cm and 1.20 cm
- Zone of Inhibition, individual readings ([1]; sample neat (100% concentration), reference standard 10% (100 mg/ml), Expt 1-3, sulphate): 1.05 cm and 1.03 cm and 1.17 cm and 1.13 cm and 1.07 cm and 1.23 cm and 1.20 cm and 1.18 cm and 1.22 cm
- Zone of Inhibition, Mean ± SD of three independent experiments ([1]; sample neat (100% concentration), listed as positive control, sulphate): 1.14±0.06 cm
- Zone of Inhibition, Mean ± SD of three independent experiments ([1]; sample neat (100% concentration), sulphate): 1.14 ± 0.06 cm
